According to article PMC2631652 (Current biology : CB, 2008):

Biological target: T1, ClC-3 (long-ClC-3A) (Homo sapiens, UniProt P51790)
T1 sequence (P51790 1-818): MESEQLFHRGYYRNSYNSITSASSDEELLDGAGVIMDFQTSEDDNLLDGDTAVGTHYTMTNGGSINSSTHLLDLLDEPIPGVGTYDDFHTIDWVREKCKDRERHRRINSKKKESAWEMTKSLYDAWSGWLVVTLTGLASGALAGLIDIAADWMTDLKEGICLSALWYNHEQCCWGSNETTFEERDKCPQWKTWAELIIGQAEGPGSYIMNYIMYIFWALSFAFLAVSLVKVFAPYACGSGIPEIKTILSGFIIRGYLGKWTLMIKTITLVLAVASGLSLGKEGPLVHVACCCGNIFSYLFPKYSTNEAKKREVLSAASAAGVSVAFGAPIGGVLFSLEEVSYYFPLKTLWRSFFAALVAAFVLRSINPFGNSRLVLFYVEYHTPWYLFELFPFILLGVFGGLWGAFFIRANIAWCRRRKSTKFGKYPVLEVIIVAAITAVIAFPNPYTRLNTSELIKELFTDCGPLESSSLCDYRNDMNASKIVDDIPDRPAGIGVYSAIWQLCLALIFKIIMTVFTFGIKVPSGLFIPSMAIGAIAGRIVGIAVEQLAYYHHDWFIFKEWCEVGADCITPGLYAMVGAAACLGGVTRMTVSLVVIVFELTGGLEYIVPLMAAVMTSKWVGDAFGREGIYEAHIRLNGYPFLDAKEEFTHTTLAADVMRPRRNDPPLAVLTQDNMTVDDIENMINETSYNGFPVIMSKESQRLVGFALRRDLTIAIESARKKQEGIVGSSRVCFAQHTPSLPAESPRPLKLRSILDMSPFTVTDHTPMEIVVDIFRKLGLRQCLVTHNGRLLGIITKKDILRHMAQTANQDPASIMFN
Test: whole-cell patch clamp, inhibitor in pipette
Assay type: cell-based

SMILES: O=P(O)(O)O[C@H]1[C@H](OP(=O)(O)O)[C@@H](OP(=O)(O)O)[C@@H](O)[C@@H](O)[C@@H]1OP(=O)(O)O [Ins(3,4,5,6)P4]
- IC50: 4.6 µM
